Values of other authors as cited in patent US7358271B2, “Sulpiride pharmaceutical compositions” (Williamsburg Holdings LLC, priority 2003, dated 2008).
Like-named read-outs stand apart in the source and are kept apart here.

What was measured:
[1] = compared with physiological pH
[2] = healthy volunteers, oral
[3] = oral formulations

For `CCN1CCCC1CNC(=O)c1cc(S(N)(=O)=O)ccc1OC` (stereo not shown) [sulpiride, N-(1-Ethyl-pyrrolidin-2-ylmethyl)-2-methoxy-5-sulfamoyl-benzamide], the pKa [1] is given as “lower than physiological pH”, the bioavailability ([2]; after food) is given as 27% and the bioavailability ([2]; without food) is given as 20%. For the same molecule, the “absorption in the gastrointestinal tract” value [3] was ~30%.
